Legend:
+SA mammary tumor cells = test: HGF-dependent +SA mammary tumor cell growth, viable cell number by MTT colorimetric assay; format: cell-based, mice; settings: for HGF-dependent +SA cell growth: vs vehicle-treated control; for +SA tumor cell growth: summary statement, HGF-dependent, in a dose-responsive manner
Description: +SA mammary tumor cells were used for the examples presented herein. […] In addition, +SA cells can form adenocarcinomas that metastasize to the lungs when injected into the mammary gland fat pad of syngeneic female mice. +SA cells were maintained in serum-free defined media containing 10 ng/mL Hepatocyte growth factor (HGF) as the mitogen, Dulbecco's Modified Eagle's Medium (DMEM)/F12 supplemented with 5 mg/mL bovine serum albumin (BSA), 10 μg/mL transferrin, 100 U/mL soybean trypsin inhibitor, 100 U/mL penicillin, 0.1 mg/mL streptomycin and 10 μg/mL insulin at 37° C. in an environment of 95% air and 5% CO2 in humidified incubator. For subculturing, cells were rinsed with sterile Ca^2+ and Mg^2+-free phosphate buffered saline (PBS) and incubated with 0.05% trypsin containing 0.025% EDTA in PBS for 5 min at 37° C. The released cells were centrifuged, resuspended in serum-free media and counted using hemocytometer.
γ-tocotrienol was prepared for the tests of this example by suspending it in a solution of sterile 10% BSA. An appropriate amount of γ-tocotrienol was dissolved in 100 μL of absolute ethyl alcohol and then added to a small volume of sterile 10% BSA in water and incubated overnight at 37° C. This stock solution was used to prepare various concentrations of the treatment media. Ethanol was added to all treatment groups in a given experiment such that the final concentration of ethanol never exceeded 0.1%. Stock solution of the Met inhibitor, SU11274 was prepared in DMSO and DMSO was added to all treatment media such that the final concentration was same in all treatment groups and never exceeded a concentration of 0.1%.
+SA cells were initially seeded at a density of 5×10^4 cells/well (6 replicates/group) in 24-well plates in serum-free defined media containing 10 ng/mL HGF as mitogen and allowed to attach overnight. For growth studies, +SA cells were maintained in serum-free defined media containing various doses of HGF over a 3-day culture period. In the antiproliferative experiments, cells were exposed to respective experimental treatments containing various concentrations of SU11274 or γ-tocotrienol alone or in combination for three days. On the fourth day, cells were divided into different treatment groups and treated with various concentrations of SU11274 or γ-tocotrienol alone or in combination for 24 hours. At the end of the treatment exposure period, the viable +SA cell number was determined by 3-(4,5-dimethylthiazol-2yl)-2,5-diphenyl tetrazolium bromide (MTT) colorimetric assay. Control and treatment media in various treatment groups in 24-well plates were replaced with fresh media containing 0.41 mg/ml MTT. After 4-h incubation period, the media was removed and MTT crystals were dissolved in isopropanol (1 ml/well), and the optical density of each sample was measured at 570 nm on a microplate reader (SpectraCount, Packard BioScience Company). The number of cells/well was calculated against a standard curve prepared by plating various concentrations of cells, as determined by hemocytometer, at the beginning of each experiment.
Vertical bars indicate mean viable cell number±SEM for six replicates in each treatment group. Differences among various treatment groups in +SA cell growth studies were determined by the analysis of variance (ANOVA) followed by Dunnett's t test. A difference of P<0.05 was considered statistically significant as compared to the vehicle-treated control.
Effects of various doses of SU11274, a specific Met Receptor Tyrosine Kinase inhibitor, or γ-tocotrienol on HGF-dependent +SA mammary tumor cell growth after a 3-day culture period are shown in FIG. 2. […] In the present example, +SA cells were initially plated at a density of 5×10^4 cells/well (6 replicates/group) in 24-well plates and exposed to various doses of SU11274 or γ-tocotrienol in the presence of 10 ng/mL HGF throughout a 3-day culture period. Viable cell number was determined using the MTT colorimetric assay. […]

Met = target: T1, Met (Mus musculus, UniProt P16056); test: Western blot analysis of total and phosphorylated (active) Met levels in HGF-stimulated +SA cells; format: cell-based, mice; settings: for HGF-dependent Met tyrosine phosphorylation: summary statement, in a dose-responsive manner
T1 construct: whole cell lysates were prepared and then subjected to polyacrylamide gel electrophoresis and Western blot analysis for total and phosphorylated Met levels; endogenous in cells; host or cells: +SA mammary tumor cells
T1 sequence (P16056 25-1379): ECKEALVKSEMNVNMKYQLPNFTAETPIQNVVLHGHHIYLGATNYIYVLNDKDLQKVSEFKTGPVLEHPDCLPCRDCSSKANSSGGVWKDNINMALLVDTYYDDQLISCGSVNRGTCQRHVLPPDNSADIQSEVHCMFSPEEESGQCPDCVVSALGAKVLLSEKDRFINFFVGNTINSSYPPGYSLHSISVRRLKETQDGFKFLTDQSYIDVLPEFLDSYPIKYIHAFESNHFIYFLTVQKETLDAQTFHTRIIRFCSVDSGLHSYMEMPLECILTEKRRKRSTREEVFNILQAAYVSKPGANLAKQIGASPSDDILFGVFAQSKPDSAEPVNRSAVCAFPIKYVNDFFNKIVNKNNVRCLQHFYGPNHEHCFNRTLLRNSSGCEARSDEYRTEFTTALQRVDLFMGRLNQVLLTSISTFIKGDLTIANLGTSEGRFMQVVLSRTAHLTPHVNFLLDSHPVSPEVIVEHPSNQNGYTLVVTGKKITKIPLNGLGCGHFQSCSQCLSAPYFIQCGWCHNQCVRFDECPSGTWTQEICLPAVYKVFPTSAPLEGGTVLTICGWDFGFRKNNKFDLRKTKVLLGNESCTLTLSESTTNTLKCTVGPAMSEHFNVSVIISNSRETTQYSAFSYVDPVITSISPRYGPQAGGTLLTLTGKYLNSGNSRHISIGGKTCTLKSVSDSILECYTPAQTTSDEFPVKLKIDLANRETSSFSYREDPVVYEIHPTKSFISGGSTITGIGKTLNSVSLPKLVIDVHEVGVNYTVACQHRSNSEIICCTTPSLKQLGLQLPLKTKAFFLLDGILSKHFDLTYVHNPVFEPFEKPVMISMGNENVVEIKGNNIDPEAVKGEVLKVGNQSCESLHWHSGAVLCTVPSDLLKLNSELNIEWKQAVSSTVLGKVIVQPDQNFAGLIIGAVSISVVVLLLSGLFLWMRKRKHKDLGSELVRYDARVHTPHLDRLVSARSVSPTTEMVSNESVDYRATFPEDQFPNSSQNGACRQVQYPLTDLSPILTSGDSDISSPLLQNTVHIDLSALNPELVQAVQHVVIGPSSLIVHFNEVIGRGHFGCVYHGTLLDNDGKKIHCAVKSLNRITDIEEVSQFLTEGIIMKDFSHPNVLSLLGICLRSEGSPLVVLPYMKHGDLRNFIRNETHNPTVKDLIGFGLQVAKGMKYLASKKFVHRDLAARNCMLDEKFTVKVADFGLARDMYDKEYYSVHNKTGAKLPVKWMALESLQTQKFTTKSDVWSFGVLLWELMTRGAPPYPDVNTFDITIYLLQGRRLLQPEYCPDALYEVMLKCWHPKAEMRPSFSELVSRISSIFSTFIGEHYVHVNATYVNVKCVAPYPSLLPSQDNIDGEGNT
Description: For Western blot analysis, +SA cells were initially plated at a density of 1×10^6 cells/100-mm culture dish, allowed to attach overnight and then incubated in the respective control or treatment media. At the end of treatment period, cells were isolated with trypsin, washed with PBS, and then whole cell lysates were prepared in a Laemmle buffer. Protein concentration in each sample was determined using a protein assay kit (Bio-Rad protein assay kit, Bio Rad, Hercules, Calif., USA). Equal amount of protein (30-50 μg/lane) of each sample was subjected to electrophoresis through 7.5%-15% SDS-polyacrylamide minigels. Minigels within a given treatment were run simultaneously using AccuPower model 500 power supply unit (VWR, Suwanee, Ga., USA). Each gel was then equilibrated in transfer buffer and transblotted at 30 V for 12-16 hours at 4° C. onto a polyvinylidene fluoride (PVDF) membrane (PerkinElmer Lifesciences, Wellesley, Mass., USA) in a Trans-Blot Cell (Bio-Rad Laboratories, Hercules, Calif.) according to the method of Towbin. These PVDF membranes were then blocked with 2% BSA in 10 mM Tris-HCl containing 50 mM NaCl and 0.1% Tween 20, pH 7.4 (TBST) and then, incubated with specific primary antibodies against Met, phospho-Met, cleaved caspase-3, cleaved PARP, and α-tubulin diluted 1:1000 to 1:5000 in 2% BSA in TBST for 2 hours at room temperature or overnight at 4° C. Membranes were then washed 5 times with TBST and incubated with respective horseradish […]-conjugated secondary antibody diluted 1:3000 to 1:5000 in 2% BSA in TBST for 1 hour at room temperature followed by rinsing with TBST for 5 times. Blots were then visualized by chemiluminescence. (Pierce, Rockford, Ill., USA). Images of protein bands from all treatment groups within a given experiment were acquired using Kodak Gel Logic 1500 Imaging System (Carestream Health Inc, New Haven, Conn., USA). The visualization of α-tubulin was used to ensure equal sample loading in each lane.
+SA cells were plated at a density of 1×10^6 cells/100 mm culture dish. Cells were then incubated with serum-free media containing vehicle (control), 5.5 μM SU11274 or 4 μM γ-tocotrienol and 10 ng/mL HGF as the mitogen for a 3-day culture period. Following treatment exposure, cells were incubated in mitogen-free media overnight. Afterwards, cells were stimulated with 100 ng/mL HGF for 30 min Cells incubated in mitogen-free media were used as untreated controls. Following mitogen exposure, whole cell lysates were prepared and then subjected to polyacrylamide gel electrophoresis and Western blot analysis for total and phosphorylated Met levels. α-Tubulin was visualized to ensure equal sample loading in each lane. Each Western blot is a representative image of the data obtained for experiments that were repeated at least three times.
The +SA cells were plated at a density of 1×10^6 cells/100 mm culture dish. Cells were then incubated with serum-free media containing vehicle (control) or 4 μM γ-tocotrienol, and 10 ng/mL HGF as a mitogen. Cells were collected at various times during the next 72-h period. Following treatment exposure at each time point, cells were incubated in mitogen-free media overnight. Afterwards, cells were stimulated with 100 ng/mL HGF for 30 min Cells incubated with mitogen-free media were used as untreated controls. Following mitogen exposure, whole cell lysates were prepared and then subjected to polyacrylamide gel electrophoresis and Western blot analysis for total and phosphorylated (active) Met receptor levels. α-Tubulin was visualized to ensure equal sample loading in each lane. Western blots presented in FIG. 4 are representative of the data obtained for experiments that were repeated at least three times.
Cells were then incubated with serum-free media containing vehicle (control), 3 μM SU11274, 2 μM γ-tocotrienol or the combination of 3 μM SU11274 and 2 μM γ-tocotrienol, and 10 ng/mL HGF as a mitogen for a 3-day culture period. […]

[1] = 5.5 μM SU11274, 3-day culture, then 100 ng/mL HGF for 30 min, vs vehicle-treated control
[2] = 4 μM γ-tocotrienol, 10 ng/mL HGF, time course over 72 h, vs vehicle-treated control

Compound | HGF-dependent +SA cell growth (+SA mammary tumor cells; 4.5-5.5 μM SU11274, 10 ng/mL HGF, 3-day culture, P<0.05) | HGF-dependent +SA cell growth (+SA mammary tumor cells; subeffective dose 3 μM SU11274 alone, 10 ng/mL HGF, 3-day culture) | +SA tumor cell growth (+SA mammary tumor cells) | HGF-dependent Met tyrosine phosphorylation (activation) (Met; [1]) | total intracellular levels of Met receptors (Met; [1]) | HGF-dependent Met tyrosine phosphorylation (Met) | HGF-dependent +SA cell growth (+SA mammary tumor cells; 4 μM γ-tocotrienol, 10 ng/mL HGF, 3-day culture, P<0.05) | HGF-dependent +SA cell growth (+SA mammary tumor cells; subeffective dose 2 μM γ-tocotrienol alone, 10 ng/mL HGF, 3-day culture) | culture exposure time at which reduction in total levels of Met protein was maximal (Met; [2]) | treatment exposure time at which reduction in total levels of Met protein started (Met; [2]) | level of total Met protein (Met; 4 μM γ-tocotrienol, 3-day culture, then 100 ng/mL HGF for 30 min) | HGF-induced Met phosphorylation (Met; 4 μM γ-tocotrienol, 3-day culture, then 100 ng/mL HGF for 30 min, mirrors loss of Met expression) | growth of neoplastic +SA mammary epithelial cells (viable cell number) (+SA mammary tumor cells; stimulation with 1-10 ng/mL HGF, 3-day culture, dose-responsive, vs mitogen-free control media, P<0.05)
Cc1[nH]c(/C=C2\C(=O)Nc3ccc(S(=O)(=O)N(C)c4cccc(Cl)c4)cc32)c(C)c1C(=O)N1CCN(C)CC1 [SU11274, reference compound] | significantly inhibited | no effect | inhibited | large relative reduction | no effect | inhibited | – | – | – | – | – | – | –
CC(C)=CCC/C(C)=C/CC/C(C)=C/CC[C@]1(C)CCc2cc(O)c(C)c(C)c2O1 [γ-tocotrienol] | – | – | inhibited | – | – | inhibited | significantly inhibited | no effect | 3 days | 24 h | significant reduction | loss | –
HGF: Hepatocyte growth factor (HGF), the mitogen, purchased from PeproTech Inc. | – | – | – | – | – | – | – | – | – | – | – | – | significantly increased

From patent US20130143866A1, “ANTICANCER COMBINATION TREATMENTS” (priority 2011, published 2013)
